From ChEMBL document CHEMBL4177667, “Design, synthesis, and anticancer properties of isocorydine derivatives” (Bioorg Med Chem, 2017) come the findings set out here.

SMILES strings stand for the structures. Active and inactive are the calls of the source. The rule behind the calls is not given here.

For one assay, the system named is MGC-803. Put plainly: Antiproliferative activity against human MGC803 cells after 48 hrs by MTT assay. Format: functional, cell-based. Conditions: MGC-803, 48 h.
The subject of another assay is HeLa. Put plainly: cells. Conditions: Homo sapiens, 48 h.
Assay [1] concerns HepG2. Put plainly: cells. Conditions: Homo sapiens, HepG2, 48 h.
Assay [2] has as its system HepG2. Nature of the assay: Cell cycle arrest in human HepG2 cells assessed as decrease in accumulation of cells at S phase at 4 ug/ml after 48 hrs by propidium iodide staining-based flow cytometric analysis. In kind it is functional. For orientation: A flow cytometer gives signals particle by particle.
Assay [3] deals with HepG2. Nature of the assay: Cell cycle arrest in human HepG2 cells assessed as increase in accumulation of cells at G0/G1 phase at 4 ug/ml after 48 hrs by propidium iodide staining-based flow cytometric analysis. In kind it is functional.
In assay [4] the test system is HepG2. Put plainly: Downregulation of C-myc protein levels in human HepG2 cells after 48 hrs by Western blot analysis. In kind it is functional, cell-based.
For assay [5], the system named is HepG2. Nature of the assay: Downregulation of Ki67 protein levels in human HepG2 cells after 48 hrs by Western blot analysis. Format: functional, cell-based.
For another assay, the system named is H22. Put plainly: Antitumor activity against mouse H22 cells implanted in mouse assessed as tumor growth inhibition at 50 mg/kg, ip qd administered for 10 consecutive days measured after 24 hrs post last dose relative to control. In kind it is functional. To be noted: read-out: TGI.
The subject of assay [6] is HepG2. Put plainly: Downregulation of beta-Catenin protein levels in human HepG2 cells after 48 hrs by Western blot analysis. Format: functional, cell-based. A general note: Immunoblotting shows a protein as a band on a membrane.
The test system of assay [7] is HepG2. Put plainly: Upregulation of vimentin protein levels in human HepG2 cells at 4 ug/ml after 48 hrs by Western blot analysis. Format: functional, cell-based.
Assay [8] deals with HepG2. Put plainly: Downregulation of cyclin D1 protein levels in human HepG2 cells after 48 hrs by Western blot analysis. In kind it is functional, cell-based.

For the compound `COc1cc(NC(=O)Nc2ccccc2C)c2c(c1OC(=O)Nc1ccccc1C)-c1c(OC)c(OC)cc3c1[C@H](C2)N(C)CC3`, the concentration for half-maximal inhibition (IC50) (in general, the concentration at which inhibition is half-maximal) with MGC-803 worked out at 22.8 µM; in the assay with HeLa, 43.9 µM; in the assay with HepG2 [1] it was 31.4 µM.

On to `COc1cc(NC(=O)Nc2ccc(N3CCC(NC(=O)OC(C)(C)C)CC3)c(C(F)(F)F)c2)c2c(c1O)-c1c(OC)c(OC)cc3c1[C@H](C2)N(C)CC3`, for which the IC50 in the assay with MGC-803 was determined as 28.7 µM; with HeLa it was 26.7 µM; in the assay with HepG2 [1] it was 25.9 µM.

As to `COc1cc(NC(=O)c2ccccc2O)c2c(c1O)-c1c(OC)c(OC)cc3c1[C@H](C2)N(C)CC3`, the IC50 in the assay with MGC-803 turned out to be 56.6 µM; in the assay with HeLa, 62.1 µM; in the assay with HepG2 [1], 75.4 µM.

Consider `COc1cc(NC(=O)c2cccnc2)c2c(c1O)-c1c(OC)c(OC)cc3c1[C@H](C2)N(C)CC3`, for which the IC50 was determined as 34.7 µM in the assay with MGC-803, 49.6 µM in the assay with HeLa and 69.8 µM in the assay on HepG2 [1].

Regarding `CCC(=O)NC1CCN(c2ccc(NC(=O)Nc3cc(OC)c(O)c4c3C[C@H]3c5c(cc(OC)c(OC)c5-4)CCN3C)cc2C(F)(F)F)CC1`, the IC50 with MGC-803 amounted to 32.5 µM; with HeLa, 33.4 µM; in the assay on HepG2 [1], 28.5 µM.

Regarding `COc1cc(NC(=O)Nc2ccc(N3CCC(CNC(=O)OC(C)(C)C)CC3)c(C(F)(F)F)c2)c2c(c1O)-c1c(OC)c(OC)cc3c1[C@H](C2)N(C)CC3`, the IC50 amounted to 23.2 µM in the assay with MGC-803, 22.1 µM with HeLa and 18.9 µM in the assay with HepG2 [1].

On to `COc1cc(NC(=O)c2cc(Cc3n[nH]c(=O)c4ccccc34)ccc2F)c2c(c1O)-c1c(OC)c(OC)cc3c1[C@H](C2)N(C)CC3`, for which the IC50 with MGC-803 came to 27.2 µM; in the assay with HeLa, 29.6 µM; with HepG2 [1], 30.2 µM.

For the compound `CCC(=O)NCC1CCN(c2ccc(NC(=O)Nc3cc(OC)c(O)c4c3C[C@H]3c5c(cc(OC)c(OC)c5-4)CCN3C)cc2C(F)(F)F)CC1`, the IC50 stood at 20.4 µM in the assay with MGC-803, 32.5 µM in the assay on HeLa and 20.7 µM in the assay on HepG2 [1].

On to `COc1cc(N)c2c(c1O)-c1c(OC)c(OC)cc3c1[C@H](C2)N(C)CC3`, for which the IC50 was 62.1 µM with MGC-803, 44.1 µM in the assay on HeLa and 51.1 µM in the assay with HepG2 [1].

Take `COc1cc(NC(=O)Nc2ccc(N3CCC(N)CC3)c(C(F)(F)F)c2)c2c(c1O)-c1c(OC)c(OC)cc3c1[C@H](C2)N(C)CC3`: the half-maximal inhibitory concentration (IC50) in the assay on MGC-803 worked out at 32.3 µM; in the assay on HeLa, 33.7 µM; in the assay on HepG2 [1], 28.6 µM.

With `COc1cc(NC(=O)Nc2ccc(Cl)c(Cl)c2)c2c(c1O)-c1c(OC)c(OC)cc3c1[C@H](C2)N(C)CC3`, the results for the half-inhibitory concentration (IC50) in the assay with MGC-803, in the assay on HeLa and in the assay with HepG2 [1] were 30 µM, 21.7 µM and 28.4 µM, respectively.

As to `COc1cc2c3c(c1O)-c1c(ccc(O)c1OC)C[C@@H]3N(C)CC2`, the concentration for half-maximal inhibition (IC50) in the assay with MGC-803 came to 124 µM; in the assay with HeLa, 109 µM; with HepG2 [1] it was 154 µM.

Take `COc1cc(NC(=O)Nc2ccc(C(F)(F)F)cc2)c2c(c1OC(=O)Nc1ccc(C(F)(F)F)cc1)-c1c(OC)c(OC)cc3c1[C@H](C2)N(C)CC3`: the values for the half-maximal inhibitory concentration (IC50) in the assay on MGC-803, in the assay with HeLa and in the assay on HepG2 [1] were 39.3 µM, 47.7 µM and 44.1 µM, respectively.

With `CNC(=O)c1cc(Oc2ccc(NC(=O)Nc3ccc(Cl)c(C(F)(F)F)c3)cc2)ccn1` [SORAFENIB], the result with HepG2 [2], with HepG2 [3] and in the assay with HepG2 [7] was Active. Also, the Activity entry in the assay with HepG2 [4], in the assay with HepG2 [5], in the assay with HepG2 [6] and in the assay on HepG2 [8] was “Dose-dependent effect” in each case. The inhibition in vivo at 50 mg/kg with H22 lay in the range of 55.8 to 56.5%.

`COc1cc(NC(=O)Nc2ccc(F)cc2)c2c(c1OC(=O)Nc1ccc(F)cc1)-c1c(OC)c(OC)cc3c1[C@H](C2)N(C)CC3`: the concentration for half-maximal inhibition (IC50) in the assay with MGC-803 was 25.1 µM; with HeLa, 26.8 µM; in the assay with HepG2 [1], 26.7 µM.

For `COc1ccc2c(c1O)-c1c(OC)c(OC)cc3c1[C@H](C2)N(C)CC3` [ISOCORYDINE], the IC50 in the assay on MGC-803, in the assay with HeLa and in the assay on HepG2 [1] was more than 200 µM in each case.

With `COc1cc2c3c(c1O)-c1c(ccc(OC)c1OC)C[C@@H]3N(C)CC2` [CORYDINE], the IC50 in the assay on MGC-803, with HeLa and in the assay with HepG2 [1] was more than 200 µM throughout.

Take `COc1cc(NC(=O)Nc2ccc(C)cc2)c2c(c1OC(=O)Nc1ccc(C)cc1)-c1c(OC)c(OC)cc3c1[C@H](C2)N(C)CC3`: the IC50 was 25.6 µM with MGC-803, 19.1 µM in the assay with HeLa and 16.1 µM in the assay on HepG2 [1].

Regarding `COc1cc(NC(=O)Nc2ccccc2Cl)c2c(c1O)-c1c(OC)c(OC)cc3c1[C@H](C2)N(C)CC3`, the 50% inhibitory concentration (IC50) worked out at 35.2 µM in the assay on MGC-803, 36.9 µM in the assay on HeLa and 36.7 µM with HepG2 [1].

In the case of `COc1ccc2c(c1O)-c1c(O)c(OC)cc3c1[C@H](C2)N(C)CC3` [CORYTUBERINE], the half-maximal inhibitory concentration (IC50) with MGC-803, with HeLa and in the assay with HepG2 [1] was more than 200 µM throughout.

Regarding `COc1cc(NC(=O)Nc2ccc(SC)cc2)c2c(c1O)-c1c(OC)c(OC)cc3c1[C@H](C2)N(C)CC3`, the results for the concentration for half-maximal inhibition (IC50) in the assay with MGC-803, in the assay on HeLa and in the assay on HepG2 [1] were 47.8 µM, 46.6 µM and 53.2 µM, respectively.

With `COc1cc(NC(=O)Nc2ccc(C(F)(F)F)cc2)c2c(c1O)-c1c(OC)c(OC)cc3c1[C@H](C2)N(C)CC3`, the IC50 in the assay with MGC-803 was found to be 57.3 µM; with HeLa, 49 µM; in the assay with HepG2 [1], 45.9 µM.

Regarding `COc1cc(NC(=O)/C=C/c2ccccc2)c2c(c1O)-c1c(OC)c(OC)cc3c1[C@H](C2)N(C)CC3`, the IC50 with MGC-803 was 37.9 µM; in the assay on HeLa, 74.5 µM; in the assay with HepG2 [1], 63.4 µM.

Turning to `COC1=CC(=O)c2cc3c4c(cc(OC)c(OC)c4c2C1=O)CCN3C`, the results for the IC50 with MGC-803, in the assay with HeLa and in the assay on HepG2 [1] were 49.6 µM, 31.3 µM and 40 µM, respectively.

`COc1cc(NC(=O)Nc2ccccc2Cl)c2c(c1OC(=O)Nc1ccccc1Cl)-c1c(OC)c(OC)cc3c1[C@H](C2)N(C)CC3`: the IC50 was determined as 26.9 µM in the assay on MGC-803, 27.1 µM in the assay with HeLa and 17.2 µM in the assay on HepG2 [1].

For the compound `COc1cc(NC(=O)c2ccc(Cl)c(C(F)(F)F)c2)c2c(c1O)-c1c(OC)c(OC)cc3c1[C@H](C2)N(C)CC3`, the results for the IC50 with MGC-803, in the assay on HeLa and in the assay on HepG2 [1] were 21.9 µM, 16.6 µM and 21.5 µM, respectively.
